From patent US20230148184A1, “COMPOUNDS AND METHODS FOR MODULATING SPLICING” (REMIX THERAPEUTICS INC., priority 2020, published 2023)
pIC50: −log10 of the molar value.

What was measured:
Format in all cases: cell-based
HTT CJ mRNA = test: Gene panel canonical junction qPCR assay, HTT; settings: decrease in CJ mRNA levels, RT-qPCR
Procedure: (§1) Compounds described herein were used to modulate RNA transcript abundance in cells. The expression of a target mRNA was measured by detecting the formation of an exon-exon junction in the canonical transcript (CJ). A compound mediated exon-inclusion event was detected by observing an increase in formation of a new junction with an alternative exon (AJ). Real-time qPCR assays were used to detect these splicing switches and interrogate the potency of various compounds towards different target genes. A high-throughput real time quantitative PCR (RT-qPCR) assay was developed to measure these two isoforms of the mRNA (CJ and AJ) for an exemplary gene, HTT, together with a control housekeeping gene, GAPDH or GUSB or PPIA, used for normalization. Briefly, the A673 or K562 cell line was treated with various compounds described herein (e.g., compounds of Formula (I)). After treatment, the levels of the HTT mRNA targets were determined from each sample of cell lysate by cDNA synthesis followed by qPCR.
(§2) The A673 cell line was cultured in DMEM with 10% FBS. Cells were diluted with full growth media and plated in a 96-well plate (15,000 cells in 100 ul media per well). The plate was incubated at 37° C. with 5% CO2 for 24 hours to allow cells to adhere. An 11-point 3-fold serial dilution of the compounds was made in DMSO then diluted in media in an intermediate plate. Compounds were transferred from the intermediate plate to the cell plate with the top dose at a final concentration of 10 uM in the well. Final DMSO concentration was kept at or below 0.25%. The cell plate was returned to the incubator at 37° C. with 5% CO2 for an additional 24 hours.
(§3) The K562 cell line was cultured in IMDM with 10% FBS. For K562, cells were diluted with full growth media and plated in either a 96-well plate (50,000 cells in 50 uL media per well) or a 384-well plate (8,000-40,000 cells in 45 uL media per well). An 11-point 3-fold serial dilution of the compounds were made in DMSO then diluted in media in an intermediate plate. Compound was transferred from the intermediate plate to the cell plate with the top dose at a final concentration of 10 uM in the well. Final DMSO concentration was kept at or below 0.25%. Final volume was 100 uL for 96-well plate and 50 uL for 384-well plate. The cell plate was then placed in an incubator at 37° C. with 5% CO2 for 24 hours.
(§4) The cells were then gently washed with 50 uL-100 uL cold PBS before proceeding to addition of lysis buffer. 30 uL-50 uL of room temperature lysis buffer with DNAse I (and optionally RNAsin) was added to each well. Cells were shaken/mixed thoroughly at room temperature for 5-10 minutes for lysis to take place and then 3 uL-5 uL of room temperature stop solution was added and wells were shaken/mixed again. After 2-5 minutes, the cell lysate plate was transferred to ice for RT-qPCR reaction setup. The lysates could also be frozen at −80° C. for later use.
(§5) In some cases, a direct lysis buffer was used. An appropriate volume of 3× lysis buffer (10 mM Tris, 150 mM NaCl, 1.5%-2.5% Igepal and 0.1-1 U/uL RNAsin, pH 7.4) was directly added to either K562 or A673 cells in media and mixed by pipetting 3 times. The plates were then incubated at room temperature with shaking/rocking for 20-50 minutes to allow for lysis to take place. After this time, the cell lysate plate was transferred to ice to set up for the RT-qPCR reactions. The lysates could also be frozen at −80° C. for later use.
(§6) To set up 10 uL RT-qPCR reactions, cell lysates were transferred to 384-well qPCR plates containing the master mix according to the table below. The plates were sealed, gently vortexed, and spun down before the run. The volumes were adjusted accordingly in some instances where the reaction was carried in 20 uL. The table below summarizes the components of the RT-qPCR reactions:
(§7) The RT-qPCR reaction was performed using a QuantStudio (ThermoFisher) under the following fast cycling conditions. […]

Target C CJ mRNA = test: Gene panel canonical junction qPCR assay, Target C; settings: decrease in CJ mRNA levels, RT-qPCR
Procedure: as §1, §2, §3, §4, §5, §6, §7

SMN2 CJ mRNA = test: Gene panel canonical junction qPCR assay, SMN2; settings: decrease in CJ mRNA levels, RT-qPCR
Procedure: as §1, §2, §3, §4, §5, §6, §7

HTT mRNA = test: RT-qPCR splicing assay for HTT mRNA isoforms (canonical junction CJ and alternative junction AJ); settings: A673 or K562 cell line, 24 hours compound treatment; for pIC50: decrease in CJ mRNA; for AC50: increase in AJ mRNA
Procedure: as §1
Cells-to-CT 1-step kit: ThermoFisher A25602, Cells-to-CT lysis reagent: ThermoFisher 4391851C, TaqMan™ Fast Virus 1-Step Master Mix: ThermoFisher 4444436 GAPDH: VIC-PL, ThermoFisher 4326317E (Assay: Hs99999905_m1)—used for K562/suspension cell lines GUSB: VIC-PL, ThermoFisher 4326320E (Assay: Hs99999908_m1)—used for K562/suspension cell lines PPIA: VIC-PL, ThermoFisher 4326316E (Assay: Hs99999904_m1)—used for A673/adherent cell lines
as §2, §3, §4
as §5, with “use. […]” for “use.”

| SMILES | pIC50 (HTT CJ mRNA) | pIC50 (Target C CJ mRNA) | pIC50 (SMN2 CJ mRNA) | pIC50 (HTT mRNA) | AC50 (HTT mRNA) [nM] |
| --- | --- | --- | --- | --- | --- |
| CN(c1cnc2c(n1)OCc1cc(-c3cn[nH]c3)ccc1-2)C1CC(C)(C)NC(C)(C)C1 [Compound 142, N,2,2,6,6-pentamethyl-N-[8-(1H-pyrazol-4-yl)-6H-isochromeno[3,4-b]pyrazin-3-yl]piperidin-4-amine] | 6.00 to 7.00 | 5.00 to 6.00 | 6.00 to 7.00 | 6.00 to 7.00 | 100 to 1000 |
| c1cnn(-c2ccc3c(c2)COc2nc(N4CCC5(CCNCC5)C4)ccc2-3)c1 [Compound 182] | < 5.00 | < 5.00 | < 5.00 | < 5.00 | > 10000 |
| CN(c1ccc2c(n1)OCc1cc(-n3cccn3)ccc1-2)[C@H]1[C@@H]2CNC[C@@H]21 [Compound 194] | < 5.00 | < 5.00 | < 5.00 | 5.00 to 6.00 | 1000 to 10000 |
| c1cnn(-c2ccc3c(c2)COc2nc(OC4CCNCC4)ccc2-3)c1 [Compound 187] | 5.00 to 6.00 | < 5.00 | 5.00 to 6.00 | 5.00 to 6.00 | > 10000 |
| c1cnn(-c2ccc3c(c2)COc2nc(N4CCCC5(CCNC5)C4)ccc2-3)c1 (stereo not shown) [Compound 192] | < 5.00 | < 5.00 | < 5.00 | < 5.00 | > 10000 |
| c1cnn(-c2ccc3c(c2)COc2nc(NC4CNC4)ccc2-3)c1 [Compound 166] | < 5.00 | < 5.00 | 5.00 to 6.00 | < 5.00 | > 10000 |
| CN(c1cnc2c(n1)OCc1cc(-c3cn[nH]c3)ccc1-2)[C@@H]1C[C@H]2CC[C@@H](C1)N2 [Compound 144, (exo)-N-methyl-N-[8-(1H-pyrazol-4-yl)-6H-isochromeno[3,4-b]pyrazin-3-yl]-8-azabicyclo[3.2.1]octan-3-amine] | 6.00 to 7.00 | 6.00 to 7.00 | < 5.00 | 6.00 to 7.00 | 100 to 1000 |
| [2H]C([2H])([2H])N(c1ccc2c(n1)OCc1cc(-n3cccn3)ccc1-2)[C@@H]1C[C@H]2CC[C@@H](C1)N2 [Compound 201] | 6.00 to 7.00 | 6.00 to 7.00 | > 7.00 | 6.00 to 7.00 | 100 to 1000 |
| CN(c1ccc2c(n1)OCc1cc(-c3cnn(C)c(=O)c3)ccc1-2)[C@@H]1C[C@H]2CC[C@@H](C1)N2 [Compound 160] | > 7.00 | > 7.00 | > 7.00 | > 7.00 | < 100 |
| c1cnn(-c2ccc3c(c2)COc2nc(O[C@@H]4C[C@H]5CC[C@@H](C4)N5)ccc2-3)c1 [Compound 188] | 6.00 to 7.00 | 5.00 to 6.00 | 6.00 to 7.00 | 6.00 to 7.00 | 100 to 1000 |
| c1cnn(-c2ccc3c(c2)COc2nc(N4CCC5(CCCNC5)C4)ccc2-3)c1 (stereo not shown) [Compound 183] | < 5.00 | < 5.00 | 6.00 to 7.00 | < 5.00 | > 10000 |
| CN(c1ccc2c(n1)CCOc1cc(-n3cccn3)ccc1-2)C1CC(C)(C)NC(C)(C)C1 [Compound 129, N-methyl-13-(pyrazol-1-yl)-N-(2,2,6,6-tetramethylpiperidin-4-yl)-10-oxa-6-azatricyclo[9.4.0.0^[2,7]]pentadeca-1(11),2(7),3,5,12,14-hexaen-5-amine] | < 5.00 | < 5.00 | < 5.00 | < 5.00 | > 10000 |
| c1cnn(-c2ccc3c(c2)OCc2nc(N[C@@H]4C[C@H]5CC[C@@H](C4)N5)ccc2-3)c1 [Compound 135, (1R,3S,5S)—N-[8-(pyrazol-1-yl)-5H-chromeno[3,4-b]pyridin-3-yl]-8-azabicyclo[3.2.1]octan-3-amine] | 5.00 to 6.00 | 5.00 to 6.00 | 5.00 to 6.00 | 5.00 to 6.00 | 1000 to 10000 |
| [2H]C([2H])([2H])N(c1ccc2c(n1)OCc1cc(-n3cccn3)ccc1-2)C1CCNCC1 [Compound 176] | 5.00 to 6.00 | < 5.00 | 5.00 to 6.00 | 5.00 to 6.00 | 1000 to 10000 |
| c1cnn(-c2ccc3c(c2)OCCc2nc(N[C@@H]4C[C@H]5CC[C@@H](C4)N5)ccc2-3)c1 [Compound 136, N-[(1R,3S,5S)-8-azabicyclo[3.2.1]octan-3-yl]-13-(pyrazol-1-yl)-10-oxa-6-azatricyclo[9.4.0.0^[2,7]]pentadeca-1(11),2(7),3,5,12,14-hexaen-5-amine] | < 5.00 | < 5.00 | < 5.00 | < 5.00 | > 10000 |
| c1cnn(-c2ccc3c(c2)COc2nc(N4CC5(CCCNC5)C4)ccc2-3)c1 [Compound 168] | < 5.00 | < 5.00 | < 5.00 | < 5.00 | > 10000 |
| c1cnn(-c2ccc3c(c2)COc2nc(N4CCNCC4)ccc2-3)c1 [Compound 173] | < 5.00 | < 5.00 | 5.00 to 6.00 | < 5.00 | > 10000 |
| COc1cc(-c2ccc3c(c2)COc2nc(N(C)[C@@H]4C[C@H]5CC[C@@H](C4)N5)ccc2-3)ccn1 [Compound 156] | > 7.00 | 6.00 to 7.00 | 6.00 to 7.00 | > 7.00 | < 100 |
| CCN(c1ccc2c(n1)OCc1cc(-n3cccn3)ccc1-2)C1CCNCC1 [Compound 177] | < 5.00 | < 5.00 | < 5.00 | < 5.00 | > 10000 |
| c1cnn(-c2ccc3c(c2)COc2nc(NC4CCNCC4)ccc2-3)c1 [Compound 174] | < 5.00 | < 5.00 | 5.00 to 6.00 | < 5.00 | > 10000 |
| COc1cc(-c2ccc3c(c2)COc2nc(N(C)[C@@H]4C[C@H]5CC[C@@H](C4)N5)ccc2-3)cnn1 [Compound 159] | > 7.00 | > 7.00 | > 7.00 | > 7.00 | < 100 |
| CN(c1ccc2c(n1)OCc1cc(-c3cn[nH]c3)ccc1-2)C1CCNCC1 [Compound 116, N-Methyl-N-[8-(1H-pyrazol-4-yl)-6H-isochromeno[3,4-b]pyridin-3-yl]piperidin-4-amine] | 6.00 to 7.00 | 6.00 to 7.00 | 6.00 to 7.00 | 6.00 to 7.00 | 1000 to 10000 |
| c1cnn(-c2ccc3c(c2)COc2nc(N4CCC5(CC4)CNC5)ccc2-3)c1 [Compound 169] | 6.00 to 7.00 | 6.00 to 7.00 | 6.00 to 7.00 | 6.00 to 7.00 | 100 to 1000 |
